Each structure is given as a SMILES string.

We go through 30 molecules from patent publication US9096602B2, “Substituted pyrrolo[2,3-B]pyrazines as ATR kinase inhibitors” (Vertex Pharmaceuticals Incorporated, priority 2011, dated 2015).

T1 sequence (Q13535 whole entry): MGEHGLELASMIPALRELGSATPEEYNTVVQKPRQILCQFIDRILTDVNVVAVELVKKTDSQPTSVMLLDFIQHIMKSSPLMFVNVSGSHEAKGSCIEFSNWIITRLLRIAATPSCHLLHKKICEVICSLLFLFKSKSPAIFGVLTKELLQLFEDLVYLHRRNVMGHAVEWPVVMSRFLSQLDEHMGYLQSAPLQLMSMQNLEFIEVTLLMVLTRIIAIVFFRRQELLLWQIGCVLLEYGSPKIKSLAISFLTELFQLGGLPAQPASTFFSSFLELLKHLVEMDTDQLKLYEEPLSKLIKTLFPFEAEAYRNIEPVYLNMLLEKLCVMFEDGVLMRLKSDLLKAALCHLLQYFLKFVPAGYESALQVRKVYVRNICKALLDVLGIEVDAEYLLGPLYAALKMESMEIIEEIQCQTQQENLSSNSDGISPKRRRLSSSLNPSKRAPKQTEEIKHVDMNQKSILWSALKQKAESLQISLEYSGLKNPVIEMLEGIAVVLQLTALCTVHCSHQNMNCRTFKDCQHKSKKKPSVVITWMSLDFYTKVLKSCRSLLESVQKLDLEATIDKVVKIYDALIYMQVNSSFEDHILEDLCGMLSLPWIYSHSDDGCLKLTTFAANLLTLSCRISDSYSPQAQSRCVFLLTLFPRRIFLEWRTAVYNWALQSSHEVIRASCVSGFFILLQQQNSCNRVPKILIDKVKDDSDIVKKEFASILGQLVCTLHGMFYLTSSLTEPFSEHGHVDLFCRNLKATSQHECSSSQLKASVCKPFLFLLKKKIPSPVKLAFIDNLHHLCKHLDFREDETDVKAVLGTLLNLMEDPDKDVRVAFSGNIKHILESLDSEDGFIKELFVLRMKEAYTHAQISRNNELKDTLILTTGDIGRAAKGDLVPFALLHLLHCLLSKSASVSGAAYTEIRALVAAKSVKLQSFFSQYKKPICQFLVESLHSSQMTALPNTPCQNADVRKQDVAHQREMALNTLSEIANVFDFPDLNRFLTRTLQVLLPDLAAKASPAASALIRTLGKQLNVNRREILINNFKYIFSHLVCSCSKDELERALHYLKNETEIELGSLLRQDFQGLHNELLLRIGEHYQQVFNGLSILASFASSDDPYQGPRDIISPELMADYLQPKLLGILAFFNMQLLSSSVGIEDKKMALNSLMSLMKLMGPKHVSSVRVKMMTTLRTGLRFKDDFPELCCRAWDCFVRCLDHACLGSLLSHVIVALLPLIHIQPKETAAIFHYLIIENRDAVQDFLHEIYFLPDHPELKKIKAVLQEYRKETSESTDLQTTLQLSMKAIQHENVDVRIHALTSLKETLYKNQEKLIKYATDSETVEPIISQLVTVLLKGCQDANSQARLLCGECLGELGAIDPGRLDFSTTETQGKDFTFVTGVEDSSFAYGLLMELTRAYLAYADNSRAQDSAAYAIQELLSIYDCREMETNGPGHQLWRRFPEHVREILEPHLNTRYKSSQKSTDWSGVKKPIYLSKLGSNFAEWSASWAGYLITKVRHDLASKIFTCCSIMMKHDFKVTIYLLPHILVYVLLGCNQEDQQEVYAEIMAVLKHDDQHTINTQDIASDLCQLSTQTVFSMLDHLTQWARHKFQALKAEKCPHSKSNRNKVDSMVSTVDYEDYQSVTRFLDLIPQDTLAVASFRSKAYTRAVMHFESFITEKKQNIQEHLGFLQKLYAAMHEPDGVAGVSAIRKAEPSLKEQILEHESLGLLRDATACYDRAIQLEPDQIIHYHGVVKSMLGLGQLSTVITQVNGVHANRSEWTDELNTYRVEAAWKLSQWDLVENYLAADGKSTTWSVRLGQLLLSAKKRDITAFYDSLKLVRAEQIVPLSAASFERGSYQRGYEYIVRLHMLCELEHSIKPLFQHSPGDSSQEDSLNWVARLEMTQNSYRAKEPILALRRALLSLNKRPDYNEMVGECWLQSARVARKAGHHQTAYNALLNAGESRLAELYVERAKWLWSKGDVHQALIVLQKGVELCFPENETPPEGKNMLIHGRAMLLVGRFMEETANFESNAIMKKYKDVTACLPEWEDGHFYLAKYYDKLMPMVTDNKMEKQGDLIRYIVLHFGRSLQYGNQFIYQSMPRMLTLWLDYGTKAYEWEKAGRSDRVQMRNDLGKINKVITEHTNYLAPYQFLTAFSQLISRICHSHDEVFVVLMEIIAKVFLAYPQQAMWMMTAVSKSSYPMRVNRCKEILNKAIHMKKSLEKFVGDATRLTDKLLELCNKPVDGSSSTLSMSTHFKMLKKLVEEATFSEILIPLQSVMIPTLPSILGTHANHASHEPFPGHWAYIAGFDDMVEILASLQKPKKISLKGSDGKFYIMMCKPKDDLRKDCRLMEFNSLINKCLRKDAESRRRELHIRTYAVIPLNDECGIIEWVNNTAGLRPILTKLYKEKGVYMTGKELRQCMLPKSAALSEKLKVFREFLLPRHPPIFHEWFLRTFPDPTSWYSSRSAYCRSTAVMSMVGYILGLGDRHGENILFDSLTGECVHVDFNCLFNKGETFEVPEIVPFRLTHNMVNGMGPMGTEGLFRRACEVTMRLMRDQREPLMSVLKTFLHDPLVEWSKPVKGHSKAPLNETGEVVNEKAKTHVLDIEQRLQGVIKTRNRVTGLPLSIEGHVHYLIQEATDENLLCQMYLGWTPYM

The first assay has as its target T1, ATR kinase (full-length ATR) (Homo sapiens, UniProt Q13535).
T1 construct: Assays were carried out at 25° C. in the presence of 5 nM full-length ATR
Description: ATR Inhibition Assay (radioactive-phosphate incorporation). As to conditions: Ki(app); 5 nM full-length ATR, 10 μM ATP, 800 μM target peptide, 25° C.; class symbols; read-out: ATR Inhibition Ki. Format: biochemical. As to the method: Compounds were screened for their ability to inhibit ATR kinase using a radioactive-phosphate incorporation assay. Assays were carried out in a mixture of 50 mM Tris/HCl (pH 7.5), 10 mM MgCl2 and 1 mM DTT. Final substrate concentrations were 10 μM [y-33P]ATP (3mCi 33P ATP/mmol ATP, Perkin Elmer) and 800 μM target peptide ([…]).
Assays were carried out at 25° C. in the presence of 5 nM full-length ATR. An assay stock buffer solution was prepared containing all of the reagents listed above, with the exception of ATP and the test compound of interest. […] The plate was pre-incubated for 10 minutes at 25° C. and the reaction initiated by addition of 15 μL [y-33P]ATP (final concentration 10 μM).
The reaction was stopped after […] by the addition of 30 μL 0.1M phosphoric acid containing 2 mM ATP. A multiscreen phosphocellulose filter 96-well plate (Millipore, Cat no. MAPHN0B50) was pretreated with 100 μL 0.2M phosphoric acid prior to the addition of 45 μL of the stopped assay mixture. The plate was washed with 5×200 μL 0.2M phosphoric acid.
After removing mean background values for all of the data points, Ki(app) data were calculated from non-linear regression analysis of the initial rate data using the Prism software package (GraphPad Prism version 3.0cx for Macintosh, GraphPad Software, San Diego Calif., USA).
As to `CC(C)S(=O)(=O)c1ccc(-c2cnc3[nH]cc(C(=O)NCC4(O)CCCCC4)c3n2)cc1` [Compound I-94, N-[(1-hydroxycyclohexyl)methyl]-2-(4-isopropylsulfonylphenyl)-5H-pyrrolo[2,3-b]pyrazine-7-carboxamide], the Ki is < 100 nM.
On the same count and under the same terms, the result for `CC(C)S(=O)(=O)c1ccc(-c2cnc3[nH]cc(C(=O)NCC4CCCCC4O)c3n2)cc1` (stereo not drawn) [Compound I-101, N-[(2-hydroxycyclohexyl)methyl]-2-(4-isopropylsulfonylphenyl)-5H-pyrrolo[2,3-b]pyrazine-7-carboxamide] reads < 100 nM; that for `Cc1cccc(Cl)c1CNC(=O)c1c[nH]c2ncc(-c3ccc(S(=O)(=O)C(C)C)cc3)nc12` [Compound I-54, N-[(2-chloro-6-methyl-phenyl)methyl]-2-(4-isopropylsulfonylphenyl)-5H-pyrrolo[2,3-b]pyrazine-7-carboxamide], < 100 nM; that for `CC(C)S(=O)(=O)c1ccc(-c2cnc3[nH]cc(C(=O)NCc4ccc(N(C)C)cc4)c3n2)cc1` [Compound I-49, N-[(4-dimethylaminophenyl)methyl]-2-(4-isopropylsulfonylphenyl)-5H-pyrrolo[2,3-b]pyrazine-7-carboxamide], < 100 nM.
Still for that read-out and setting: the result for `CC(C)S(=O)(=O)c1ccc(-c2cnc3[nH]cc(C(=O)Nc4ccc(N)cc4)c3n2)cc1` [Compound I-18, N-(4-aminophenyl)-2-(4-isopropylsulfonylphenyl)-5H-pyrrolo[2,3-b]pyrazine-7-carboxamide] reads < 100 nM; that for `Cc1ccc(CNC(=O)c2c[nH]c3ncc(-c4ccc(S(=O)(=O)C(C)C)cc4)nc23)cc1` [Compound I-17, 2-(4-isopropylsulfonylphenyl)-N-(p-tolylmethyl)-5H-pyrrolo[2,3-b]pyrazine-7-carboxamide], < 100 nM.
Same read-out and setting: as for `CC(C)S(=O)(=O)c1ccc(-c2cnc3[nH]cc(C(=O)NC(CCO)c4ccc(N)cc4)c3n2)cc1` (stereo not drawn) [Compound I-80, N-[1-(4-aminophenyl)-3-hydroxy-propyl]-2-(4-isopropylsulfonylphenyl)-5H-pyrrolo[2,3-b]pyrazine-7-carboxamide], the figure is 100 to 500 nM; as for `CC(C)S(=O)(=O)c1ccc(-c2cnc3[nH]cc(C(=O)NC4CCOC4)c3n2)cc1` (stereo not drawn) [Compound I-118, 2-(4-isopropylsulfonylphenyl)-N-tetrahydrofuran-3-yl-5H-pyrrolo[2,3-b]pyrazine-7-carboxamide], 100 to 500 nM.
As for `CC(C)S(=O)(=O)c1ccc(-c2cnc3[nH]cc(C(=O)N[C@H](C)[C@@H](O)c4ccc(O)cc4)c3n2)cc1` [Compound I-84, N-[(1R,2S)-2-hydroxy-2-(4-hydroxyphenyl)-1-methyl-ethyl]-2-(4-isopropylsulfonylphenyl)-5H-pyrrolo[2,3-b]pyrazine-7-carboxamide], the Ki lay in the range of 100 to 500 nM.
Same read-out and setting: the result for `CC(C)S(=O)(=O)c1ccc(-c2cnc3[nH]cc(C(=O)Nc4ccccc4)c3n2)cc1` [Compound I-2, 2-(4-isopropylsulfonylphenyl)-N-phenyl-5H-pyrrolo[2,3-b]pyrazine-7-carboxamide] reads < 100 nM.
With `CC(C)S(=O)(=O)c1ccc(-c2cnc3[nH]cc(C(=O)NCc4ccccc4)c3n2)cc1` [Compound I-1, N-benzyl-2-(4-isopropylsulfonylphenyl)-5H-pyrrolo[2,3-b]pyrazine-7-carboxamide], the Ki was < 100 nM.
Same read-out and setting: as for `COc1cccc(NC(=O)c2c[nH]c3ncc(-c4ccc(S(=O)(=O)C(C)C)cc4)nc23)c1` [Compound I-11, 2-(4-isopropylsulfonylphenyl)-N-(3-methoxyphenyl)-5H-pyrrolo[2,3-b]pyrazine-7-carboxamide], the figure is 500 to 5000 nM.
On the same count and under the same terms, as for `CC(C)S(=O)(=O)c1ccc(-c2cnc3[nH]cc(C(=O)N[C@@H](CCO)c4ccccc4)c3n2)cc1` [Compound I-51, N-[(1S)-3-hydroxy-1-phenyl-propyl]-2-(4-isopropylsulfonylphenyl)-5H-pyrrolo[2,3-b]pyrazine-7-carboxamide], the figure is 500 to 5000 nM; as for `CC(C)S(=O)(=O)c1ccc(-c2cnc3[nH]cc(C(=O)Nc4ccccc4N)c3n2)cc1` [Compound I-19, N-(2-aminophenyl)-2-(4-isopropylsulfonylphenyl)-5H-pyrrolo[2,3-b]pyrazine-7-carboxamide], 100 to 500 nM.
Still for that read-out and setting: as for `CC(C)S(=O)(=O)c1ccc(-c2cnc3[nH]cc(C(=O)N(Cc4ccccc4)c4ccccc4)c3n2)cc1` [Compound I-8, N-benzyl-2-(4-isopropylsulfonylphenyl)-N-phenyl-5H-pyrrolo[2,3-b]pyrazine-7-carboxamide], the figure is 500 to 5000 nM; as for `CC(C)S(=O)(=O)c1ccc(-c2cnc3[nH]cc(C(=O)NC4CCc5ccccc54)c3n2)cc1` (stereo not drawn) [Compound I-53, N-indan-1-yl-2-(4-isopropylsulfonylphenyl)-5H-pyrrolo[2,3-b]pyrazine-7-carboxamide], < 100 nM; as for `Cc1cccc(CNC(=O)c2c[nH]c3ncc(-c4ccc(S(=O)(=O)C(C)C)cc4)nc23)c1C` [Compound I-68, N-[(2,3-dimethylphenyl)methyl]-2-(4-isopropylsulfonylphenyl)-5H-pyrrolo[2,3-b]pyrazine-7-carboxamide], < 100 nM.
Consider `CC(O)c1cccc(NC(=O)c2c[nH]c3ncc(-c4ccc(S(=O)(=O)C(C)C)cc4)nc23)c1` (stereo not drawn) [Compound I-34, N-[3-(1-hydroxyethyl)phenyl]-2-(4-isopropylsulfonylphenyl)-5H-pyrrolo[2,3-b]pyrazine-7-carboxamide], for which the Ki is 100 to 500 nM.
Same read-out and setting: as for `CC(C)S(=O)(=O)c1ccc(-c2cnc3[nH]cc(C(=O)NC4CCOCC4)c3n2)cc1` [Compound I-104, 2-(4-isopropylsulfonylphenyl)-N-tetrahydropyran-4-yl-5H-pyrrolo[2,3-b]pyrazine-7-carboxamide], the figure is 500 to 5000 nM; as for `Cc1ccc(NC(=O)c2c[nH]c3ncc(-c4ccc(S(=O)(=O)C(C)C)cc4)nc23)cc1F` [Compound I-64, N-(3-fluoro-4-methyl-phenyl)-2-(4-isopropylsulfonylphenyl)-5H-pyrrolo[2,3-b]pyrazine-7-carboxamide], < 100 nM; as for `CC(C)S(=O)(=O)c1ccc(-c2cnc3[nH]cc(C(=O)N[C@@H](CO)c4ccccc4)c3n2)cc1` [Compound I-56, N-[(1R)-2-hydroxy-1-phenyl-ethyl]-2-(4-isopropylsulfonylphenyl)-5H-pyrrolo[2,3-b]pyrazine-7-carboxamide], 100 to 500 nM.
The same measure, in the same setting: as for `CC(C)S(=O)(=O)c1ccc(-c2cnc3[nH]cc(C(=O)N[C@@H](C)CO)c3n2)cc1` [Compound I-106, N-[(1S)-2-hydroxy-1-methyl-ethyl]-2-(4-isopropylsulfonylphenyl)-5H-pyrrolo[2,3-b]pyrazine-7-carboxamide], the figure is 100 to 500 nM; as for `Cc1cccc(NC(=O)c2c[nH]c3ncc(-c4ccc(S(=O)(=O)C(C)C)cc4)nc23)c1` [Compound I-76, 2-(4-isopropylsulfonylphenyl)-N-(m-tolyl)-5H-pyrrolo[2,3-b]pyrazine-7-carboxamide], 500 to 5000 nM.
Still for that read-out and setting: as for `CC(C)S(=O)(=O)c1ccc(-c2cnc3[nH]cc(C(=O)N(CCO)c4ccccc4)c3n2)cc1` [Compound I-10, N-(2-hydroxyethyl)-2-(4-isopropylsulfonylphenyl)-N-phenyl-5H-pyrrolo[2,3-b]pyrazine-7-carboxamide], the figure is 100 to 500 nM.
Take `COCCNC(=O)c1c[nH]c2ncc(-c3ccc(S(=O)(=O)C(C)C)cc3)nc12` [Compound I-119, 2-(4-isopropylsulfonylphenyl)-N-(2-methoxyethyl)-5H-pyrrolo[2,3-b]pyrazine-7-carboxamide]: the Ki lay within 100 to 500 nM.
Still for that read-out and setting: the result for `CC(C)S(=O)(=O)c1ccc(-c2cnc3[nH]cc(C(=O)NCc4ccc5c(c4)OCO5)c3n2)cc1` [Compound I-125, N-(1,3-benzodioxol-5-ylmethyl)-2-(4-isopropylsulfonylphenyl)-5H-pyrrolo[2,3-b]pyrazine-7-carboxamide] reads < 100 nM; that for `Cc1cccnc1CNC(=O)c1c[nH]c2ncc(-c3ccc(S(=O)(=O)C(C)C)cc3)nc12` [Compound I-83, 2-(4-isopropylsulfonylphenyl)-N-[(3-methyl-2-pyridyl)methyl]-5H-pyrrolo[2,3-b]pyrazine-7-carboxamide], 100 to 500 nM; that for `CC(C)S(=O)(=O)c1ccc(-c2cnc3[nH]cc(C(=O)Nc4ccc(C#N)cc4)c3n2)cc1` [Compound I-14, N-(4-cyanophenyl)-2-(4-isopropylsulfonylphenyl)-5H-pyrrolo[2,3-b]pyrazine-7-carboxamide], 500 to 5000 nM.

Staying with this assay, now noted: Ki(app); 5 nM full-length ATR, 10 μM ATP, 800 μM target peptide, 25° C.; given as numeric lower bound without unit; read-out: ATR Inhibition Ki.
On to `CC(C)S(=O)(=O)c1ccc(-c2cnc3[nH]cc(C(=O)N4CCCCC4)c3n2)cc1` [Compound I-39, [2-(4-isopropylsulfonylphenyl)-5H-pyrrolo[2,3-b]pyrazin-7-yl]-(1-piperidyl)methanone], for which the Ki was > 250 nM.
Still for that read-out and setting: the result for `CC(C)S(=O)(=O)c1ccc(-c2cnc3[nH]cc(C(=O)N(CCO)C4CCCCC4)c3n2)cc1` [Compound I-121, N-cyclohexyl-N-(2-hydroxyethyl)-2-(4-isopropylsulfonylphenyl)-5H-pyrrolo[2,3-b]pyrazine-7-carboxamide] reads > 1000 nM.
